Assay results as given in US4362746A (priority 1981, dated 1982).
Counter-ions that a name gives are not always drawn. Like-named read-outs stand apart in the source and are kept apart here.

How the values were obtained:
Influenza A2 /MTL/68 = assay: In vitro anti-myxovirus assay, inhibition of hemadsorption, Influenza A2/MTL/68 in G-2 cells; assay type: cell-based, Influenza A2 /Montreal/68; conditions: for inhibition at 50 µg/mL: 50 ug/ml; for inhibition at 5 µg/mL: 5 ug/ml; for inhibition at 10 µg/mL: 10 ug/ml; for inhibition at 25 µg/mL: 25 ug/ml; for inhibition at 33 µg/mL: 33 ug/ml
[1] = test system: Influenza A/Swine/1976/31; assay: microbe, parasite or virus in culture; assay type: cell-based; conditions: in Sus scrofa
Influenza A2 /Aichi/2/68 = assay: In vitro anti-myxovirus assay, inhibition of hemadsorption, Influenza A2/Aichi/2/68 in G-2 cells; assay type: cell-based; conditions: for inhibition at 50 µg/mL: 50 ug/ml; for inhibition at 60 µg/mL: 60 ug/ml; for inhibition at 70 µg/mL: 70 ug/ml; for inhibition at 80 µg/mL: 80 ug/ml; for inhibition at 90 µg/mL: 90 ug/ml; for inhibition at 100 µg/mL: 100 ug/ml
in vitro = conditions: human, g-2 cells; for MNTC: Cytotoxicity CTD0, maximal non-toxic concentration; for CC50: Cytotoxicity CTD50
[2] = test system: influenza virus A2 /Aichi/2/68; assay type: in vivo, mice (Charles River, random bred white, female); conditions: for Mean Survival Time / Survival % / Survival N (surviving animals / total infected) / Mean Survival Time Increase: 16 days; for Mean Survival Time Increase: vs virus only; for antiviral effect against influenza virus infection: administered intraperitoneally
G-2 cells = conditions: maximal non-toxic concentration; G-2 cells; hydrochloride
[3] = Subacute toxicity in mice; conditions: mouse, in vivo
mice [4] = assay: Subacute toxicity in mice; conditions: once a day, seventeenth day of treatment
Acute toxicity in mice = conditions: mouse, in vivo
mice [5] = assay: Acute toxicity in mice; conditions: after 24 hours
[6] = Exp. 1, virus dose 4.1 LD50, 75 mg/kg/day IP
[7] = Exp. 2, virus dose 2.0 LD50, 75 mg/kg/day IP
[8] = Exp. 3, virus dose 2.6 LD50, 75 mg/kg/day IP
[9] = Exp. 4, virus dose 3.0 LD50, 75 mg/kg/day IP
[10] = Exp. 1, virus dose 4.1 LD50, 25 mg/kg/day IP

NC12CC3CC(CC(C3)C1)C2 [AMANTADINE HYDROCHLORIDE, reference compound]
inhibition at 50 µg/mL (Influenza A2 /MTL/68; 316 TCID50): 0% | inhibition at 60 µg/mL (Influenza A2 /MTL/68; 316 TCID50, 60 ug/ml): 0% | inhibition at 70 µg/mL (Influenza A2 /MTL/68; 316 TCID50, 70 ug/ml): 16% | inhibition at 80 µg/mL (Influenza A2 /MTL/68; 316 TCID50, 80 ug/ml): 42% | inhibition at 90 µg/mL (Influenza A2 /MTL/68; 316 TCID50, 90 ug/ml): 46% | inhibition at 100 µg/mL (Influenza A2 /MTL/68; 316 TCID50, 100 ug/ml): 54% | inhibition at 30 µg/mL ([1]; 178 TCID50, 30 ug/ml): 0% | inhibition at 40 µg/mL ([1]; 178 TCID50, 40 ug/ml): 17% | inhibition at 50 µg/mL ([1]; 178 TCID50, 50 ug/ml): 80% | inhibition at 60 µg/mL ([1]; 178 TCID50, 60 ug/ml): 90% | inhibition at 70 µg/mL ([1]; 178 TCID50, 70 ug/ml): 93% | inhibition at 80 µg/mL ([1]; 178 TCID50, 80 ug/ml): 100% | inhibition at 90 µg/mL ([1]; 178 TCID50, 90 ug/ml): 100% | inhibition at 100 µg/mL ([1]; 178 TCID50, 100 ug/ml): 100% | inhibition at 30 µg/mL ([1]; 316 TCID50, 30 ug/ml): 0% | inhibition at 40 µg/mL ([1]; 316 TCID50, 40 ug/ml): 10% | inhibition at 50 µg/mL ([1]; 316 TCID50, 50 ug/ml): 67% | inhibition at 70 µg/mL ([1]; 316 TCID50, 70 ug/ml): 97% | inhibition at 80 µg/mL ([1]; 316 TCID50, 80 ug/ml): 100% | inhibition at 90 µg/mL ([1]; 316 TCID50, 90 ug/ml): 100% | inhibition at 100 µg/mL ([1]; 316 TCID50, 100 ug/ml): 100% | inhibition at 50 µg/mL (Influenza A2 /Aichi/2/68; 52 TCID50): 0% | inhibition at 60 µg/mL (Influenza A2 /Aichi/2/68; 52 TCID50): 53% | inhibition at 70 µg/mL (Influenza A2 /Aichi/2/68; 52 TCID50): 83% | inhibition at 80 µg/mL (Influenza A2 /Aichi/2/68; 52 TCID50): 70% | inhibition at 90 µg/mL (Influenza A2 /Aichi/2/68; 52 TCID50): 97% | inhibition at 100 µg/mL (Influenza A2 /Aichi/2/68; 52 TCID50): 87% | inhibition at 50 µg/mL (Influenza A2 /Aichi/2/68; 100 TCID50): 0% | inhibition at 60 µg/mL (Influenza A2 /Aichi/2/68; 100 TCID50): 0% | inhibition at 70 µg/mL (Influenza A2 /Aichi/2/68; 100 TCID50): 33% | inhibition at 80 µg/mL (Influenza A2 /Aichi/2/68; 100 TCID50): 27% | inhibition at 90 µg/mL (Influenza A2 /Aichi/2/68; 100 TCID50): 67% | inhibition at 100 µg/mL (Influenza A2 /Aichi/2/68; 100 TCID50): 43% | MNTC (in vitro): 100 µg/mL | CC50 (in vitro): > 100 µg/mL | Mean Survival Time [2, 6]: 14.1 days | Survival % [2, 6]: 55% | Survival N (surviving animals / total infected) [2, 6]: 11/20 | Mean Survival Time Increase [2, 6]: +1.9 Days | Mean Survival Time [2, 7]: 15.3 days | Survival % [2, 7]: 80% | Survival N (surviving animals / total infected) [2, 7]: 16/20 | Mean Survival Time Increase [2, 7]: +2.9 Days | Mean Survival Time [2, 8]: 15.1 days | Survival % [2, 8]: 80% | Survival N (surviving animals / total infected) [2, 8]: 16/20 | Mean Survival Time Increase [2, 8]: +4.0 Days | Mean Survival Time [2, 9]: 15.0 days | Survival % [2, 9]: 79% | Survival N (surviving animals / total infected) [2, 9]: 15/19 | Mean Survival Time Increase [2, 9]: +3.7 Days | antiviral effect against influenza virus infection [2]: significant antiviral effect

CN(C)C[C@@H]1C[C@H]2C[C@@H]1c1ccccc12 (relative stereo) [Compound A, endo-2-dimethylaminomethyl-1,2,3,4-tetrahydro-1,4-methanonaphthalene hydrochloride]
Cytotoxicity CTD0 (G-2 cells): 50 µg/mL | inhibition at 5 µg/mL (Influenza A2 /MTL/68; 32 TCID50): 0% | inhibition at 10 µg/mL (Influenza A2 /MTL/68; 32 TCID50): 23% | inhibition at 25 µg/mL (Influenza A2 /MTL/68; 32 TCID50): 76% | inhibition at 33 µg/mL (Influenza A2 /MTL/68; 32 TCID50): 78% | inhibition at 50 µg/mL (Influenza A2 /MTL/68; 32 TCID50): 97% | inhibition at 5 µg/mL (Influenza A2 /MTL/68; 316 TCID50): 0% | inhibition at 10 µg/mL (Influenza A2 /MTL/68; 316 TCID50): 0% | inhibition at 25 µg/mL (Influenza A2 /MTL/68; 316 TCID50): 27% | inhibition at 33 µg/mL (Influenza A2 /MTL/68; 316 TCID50): 52% | inhibition at 50 µg/mL (Influenza A2 /MTL/68; 316 TCID50): 53% | inhibition at 5 µg/mL ([1]; 56 TCID50, 5 ug/ml): 0% | inhibition at 10 µg/mL ([1]; 56 TCID50, 10 ug/ml): 37% | inhibition at 25 µg/mL ([1]; 56 TCID50, 25 ug/ml): 85% | inhibition at 33 µg/mL ([1]; 56 TCID50, 33 ug/ml): 82% | inhibition at 50 µg/mL ([1]; 56 TCID50, 50 ug/ml): 97% | inhibition at 75 µg/mL ([1]; 56 TCID50, 75 ug/ml): 100% | inhibition at 5 µg/mL ([1]; 562 TCID50, 5 ug/ml): 0% | inhibition at 10 µg/mL ([1]; 562 TCID50, 10 ug/ml): 0% | inhibition at 25 µg/mL ([1]; 562 TCID50, 25 ug/ml): 0% | inhibition at 33 µg/mL ([1]; 562 TCID50, 33 ug/ml): 37% | inhibition at 50 µg/mL ([1]; 562 TCID50, 50 ug/ml): 72% | inhibition at 75 µg/mL ([1]; 562 TCID50, 75 ug/ml): 73% | MNTC (in vitro): 75 µg/mL | CC50 (in vitro): 100 µg/mL | LD50 at 408 h ([3]; ip): 125 mg/kg | NOAEL at 408 h ([3]; ip): 25 mg/kg/day | LD50 at 408 h ([3]; po): > 750 mg/kg | NOAEL at 408 h ([3]; po): 300 mg/kg/day | Subacute LD0 (non-lethal dose) (mice [4]; IP): 75 mg/kg/day | Subacute LD0 (non-lethal dose) (mice [4]; PO): > 750 mg/kg/day | LD50 at 24 h (Acute toxicity in mice; ip): 160 mg/kg | NOAEL at 24 h (Acute toxicity in mice; ip): 25 mg/kg/day | LD50 at 24 h (Acute toxicity in mice; po): > 750 mg/kg | NOAEL at 24 h (Acute toxicity in mice; po): 200 mg/kg/day | Acute LD0 (non-lethal dose) (mice [5]; IP): 75 mg/kg/day | Acute LD0 (non-lethal dose) (mice [5]; PO): > 750 mg/kg/day | Mean Survival Time [2, 10]: 12.7 days | Survival % [2, 10]: 30% | Survival N (surviving animals / total infected) [2, 10]: 6/20 | Mean Survival Time Increase [2, 10]: +0.5 Days | antiviral effect against influenza virus infection [2]: significant antiviral effect
